Measured values taken from patent US20030105595A1, “Chi square tests for gene expression” (priority 2001, published 2003).

Legend:
Experiment in all cases: multi-sample expression analysis, band intensity
Format in all cases: in vivo
Settings in all cases: Pooled
band b1i0_57.4 = test system: band b1i0_57.4
Excerpt: (§1) To practice the invention, one skilled in the art obtains a source of biological samples, as well as expression information about the biological samples, i.e., expression information relative to one or more genes or polypeptides encoded therein. Data is collected for a particular phenotype appearing within a given population under study, whereby expression of that phenotype is to be determined within the biological sample under study. The phenotype is correlated to a specific genotype, which is then represented as a band with a given intentity, thus indicative of gene expression levels, and is then compared to control samples. Alternatively, the response of a gene to dosage with one or more drugs is determined by band intensity. The standard deviation from the mean (StdDev) is calculated for the control samples, and is fit to functional form in the following equation: […]
(§2) A multi-sample expression analysis was run using the program described in Example 1. For each drug run, only runs for genes producing bands with a p-value<10^−5 in at least 2 of the following 3 comparisons were selected: low dose versus vehicle, high dose versus vehicle and low dose versus high dose. […] Since clusters found using all 13K bands included some of the best 2K bands, it was concluded that no essential signal was lost (see FIGS. 3 and 4). […] A comparison using the same analytic tests on only the best 2K bands. It can be seen that the Chi Square metric provides a better distinction between low and high doses than the correlation metric, which is not able to distinguish between the low dose and the high dose (see FIG. 6). The low-dose/high dose statistical variation is more pronounced when only the best 2K bands are selected.

band b1i0_53.0 = test system: band b1i0_53.0
Excerpt: as §1, §2

band b1i0_51.7 = test system: band b1i0_51.7
Excerpt: as §1, §2

band b1i0_69.4 = test system: band b1i0_69.4
Excerpt: as §1, §2

band b1i0_54.5 = test system: band b1i0_54.5
Excerpt: as §1, §2

band b1i0_62.5 = test system: band b1i0_62.5
Excerpt: as §1, §2

band b1i0_63.7 = test system: band b1i0_63.7
Excerpt: as §1, §2

band b1i0_60.7 = test system: band b1i0_60.7
Excerpt: as §1, §2

Dichlorobenzene
band intensity b1i0_57.4 (band b1i0_57.4; High dose, 1d): 1260 | band intensity b1i0_57.4 (band b1i0_57.4; High dose, 3d): 1064 | band intensity b1i0_57.4 (band b1i0_57.4; High dose, 7d): 1287 | band intensity b1i0_57.4 (band b1i0_57.4; High dose, 14d): 1142 | band intensity b1i0_57.4 (band b1i0_57.4; Low dose, 1d): 1301 | band intensity b1i0_57.4 (band b1i0_57.4; Low dose, 3d): 1352 | band intensity b1i0_57.4 (band b1i0_57.4; Low dose, 7d): 1298 | band intensity b1i0_57.4 (band b1i0_57.4; Low dose, 14d): 1338 | band intensity b1i0_53.0 (band b1i0_53.0; High dose, 1d): 103.4 | band intensity b1i0_53.0 (band b1i0_53.0; High dose, 3d): 48.52 | band intensity b1i0_53.0 (band b1i0_53.0; High dose, 7d): 99.66 | band intensity b1i0_53.0 (band b1i0_53.0; High dose, 14d): 95.42 | band intensity b1i0_53.0 (band b1i0_53.0; Low dose, 1d): 127.1 | band intensity b1i0_53.0 (band b1i0_53.0; Low dose, 3d): 71.53 | band intensity b1i0_53.0 (band b1i0_53.0; Low dose, 7d): 113.8 | band intensity b1i0_53.0 (band b1i0_53.0; Low dose, 14d): 116.4 | band intensity b1i0_51.7 (band b1i0_51.7; High dose, 1d): 27.84 | band intensity b1i0_51.7 (band b1i0_51.7; High dose, 3d): 10.75 | band intensity b1i0_51.7 (band b1i0_51.7; High dose, 7d): 16.63 | band intensity b1i0_51.7 (band b1i0_51.7; High dose, 14d): 21.77 | band intensity b1i0_51.7 (band b1i0_51.7; Low dose, 1d): 28.93 | band intensity b1i0_51.7 (band b1i0_51.7; Low dose, 3d): 26.06 | band intensity b1i0_51.7 (band b1i0_51.7; Low dose, 7d): 16.57 | band intensity b1i0_51.7 (band b1i0_51.7; Low dose, 14d): 23.43 | band intensity b1i0_69.4 (band b1i0_69.4; High dose, 1d): 295.5 | band intensity b1i0_69.4 (band b1i0_69.4; High dose, 3d): 393.2 | band intensity b1i0_69.4 (band b1i0_69.4; High dose, 7d): 261.7 | band intensity b1i0_69.4 (band b1i0_69.4; High dose, 14d): 311.3 | band intensity b1i0_69.4 (band b1i0_69.4; Low dose, 1d): 130.6 | band intensity b1i0_69.4 (band b1i0_69.4; Low dose, 3d): 334.6 | band intensity b1i0_69.4 (band b1i0_69.4; Low dose, 7d): 304.3 | band intensity b1i0_69.4 (band b1i0_69.4; Low dose, 14d): 333.2913 | band intensity b1i0_54.5 (band b1i0_54.5; High dose, 1d): 91.99 | band intensity b1i0_54.5 (band b1i0_54.5; High dose, 3d): 89.82 | band intensity b1i0_54.5 (band b1i0_54.5; High dose, 7d): 80.92 | band intensity b1i0_54.5 (band b1i0_54.5; High dose, 14d): 84.91 | band intensity b1i0_54.5 (band b1i0_54.5; Low dose, 1d): 88.39 | band intensity b1i0_54.5 (band b1i0_54.5; Low dose, 3d): 128.4 | band intensity b1i0_54.5 (band b1i0_54.5; Low dose, 7d): 88.11 | band intensity b1i0_54.5 (band b1i0_54.5; Low dose, 14d): 101.4 | band intensity b1i0_62.5 (band b1i0_62.5; High dose, 1d): 68.45 | band intensity b1i0_62.5 (band b1i0_62.5; High dose, 3d): 97.82 | band intensity b1i0_62.5 (band b1i0_62.5; High dose, 7d): 76.86 | band intensity b1i0_62.5 (band b1i0_62.5; High dose, 14d): 64.49 | band intensity b1i0_62.5 (band b1i0_62.5; Low dose, 1d): 73.54 | band intensity b1i0_62.5 (band b1i0_62.5; Low dose, 3d): 76.31 | band intensity b1i0_62.5 (band b1i0_62.5; Low dose, 7d): 88.91 | band intensity b1i0_62.5 (band b1i0_62.5; Low dose, 14d): 68.64 | band intensity b1i0_63.7 (band b1i0_63.7; High dose, 1d): 129 | band intensity b1i0_63.7 (band b1i0_63.7; High dose, 3d): 5.698 | band intensity b1i0_63.7 (band b1i0_63.7; High dose, 7d): 224.3 | band intensity b1i0_63.7 (band b1i0_63.7; High dose, 14d): 157.7 | band intensity b1i0_63.7 (band b1i0_63.7; Low dose, 1d): 166.2 | band intensity b1i0_63.7 (band b1i0_63.7; Low dose, 3d): 24.94 | band intensity b1i0_63.7 (band b1i0_63.7; Low dose, 7d): 258.8 | band intensity b1i0_63.7 (band b1i0_63.7; Low dose, 14d): 152.1 | band intensity b1i0_60.7 (band b1i0_60.7; High dose, 1d): 79.94 | band intensity b1i0_60.7 (band b1i0_60.7; High dose, 3d): 62.13 | band intensity b1i0_60.7 (band b1i0_60.7; High dose, 7d): 77.87 | band intensity b1i0_60.7 (band b1i0_60.7; High dose, 14d): 82.42 | band intensity b1i0_60.7 (band b1i0_60.7; Low dose, 1d): 95.98 | band intensity b1i0_60.7 (band b1i0_60.7; Low dose, 3d): 58.61 | band intensity b1i0_60.7 (band b1i0_60.7; Low dose, 7d): 74.81 | band intensity b1i0_60.7 (band b1i0_60.7; Low dose, 14d): 94.46
